Results on 29 compounds are retold here after US20130303507A1 (Novartis AG, priority 2011, published 2013).

What is called IC50 is the concentration needed to halve the response being measured.

The target of the assay is Cdk9/cyclinT1 (Homo sapiens, UniProt P50750). Nature of the assay: Cdk9/cyclinT1 IMAP protocol (fluorescence polarization). The following applies: IC-50, CDK9; lower limit of assay 0.0005 micromolar. (In general: Fluorescence polarisation rises when a labelled molecule tumbles more slowly, as on binding a larger partner.)
Chain of Cdk9/cyclinT1 (P50750 whole entry): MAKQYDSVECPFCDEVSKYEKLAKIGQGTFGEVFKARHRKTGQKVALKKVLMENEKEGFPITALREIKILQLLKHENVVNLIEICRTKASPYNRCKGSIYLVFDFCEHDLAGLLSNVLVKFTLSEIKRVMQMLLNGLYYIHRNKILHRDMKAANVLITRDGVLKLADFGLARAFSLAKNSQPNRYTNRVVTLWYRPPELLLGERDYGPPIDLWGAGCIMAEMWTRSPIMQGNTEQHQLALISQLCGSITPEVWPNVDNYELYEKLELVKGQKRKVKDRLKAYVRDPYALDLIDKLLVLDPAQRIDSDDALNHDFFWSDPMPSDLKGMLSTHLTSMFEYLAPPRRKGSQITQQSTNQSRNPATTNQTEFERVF
Chain of Cdk9/cyclinT1 (O60563 whole entry partner): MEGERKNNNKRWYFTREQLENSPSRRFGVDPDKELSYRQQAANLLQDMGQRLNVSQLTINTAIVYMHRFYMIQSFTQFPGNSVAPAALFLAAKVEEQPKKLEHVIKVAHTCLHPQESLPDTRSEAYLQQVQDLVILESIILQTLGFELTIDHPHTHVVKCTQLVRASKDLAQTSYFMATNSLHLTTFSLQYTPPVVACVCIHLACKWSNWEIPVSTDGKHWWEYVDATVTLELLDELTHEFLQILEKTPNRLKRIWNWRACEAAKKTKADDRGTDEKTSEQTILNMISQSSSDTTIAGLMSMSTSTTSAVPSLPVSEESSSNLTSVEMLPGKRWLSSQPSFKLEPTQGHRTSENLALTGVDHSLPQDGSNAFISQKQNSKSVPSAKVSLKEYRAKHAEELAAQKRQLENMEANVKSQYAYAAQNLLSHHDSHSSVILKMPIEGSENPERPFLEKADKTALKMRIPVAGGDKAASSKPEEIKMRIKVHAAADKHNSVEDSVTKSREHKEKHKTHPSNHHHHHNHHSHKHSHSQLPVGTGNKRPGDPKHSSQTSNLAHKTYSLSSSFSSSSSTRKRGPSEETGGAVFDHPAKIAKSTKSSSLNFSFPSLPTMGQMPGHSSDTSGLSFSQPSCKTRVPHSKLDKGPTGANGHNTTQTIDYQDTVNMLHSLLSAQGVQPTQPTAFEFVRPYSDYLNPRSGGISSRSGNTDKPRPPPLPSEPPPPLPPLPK
For `N#CC1(CNc2cccc(-c3cc(N[C@H]4CC[C@@H](O)C4)ncc3Cl)n2)CCOCC1` (relative stereo) [Example 404], the IC50 is under 0.5 nM.

`CC(C)N[C@@H]1CC[C@@H](Nc2cc(-c3cccc(NCC4(C#N)CCOCC4)n3)c(Cl)cn2)C1` (relative stereo) [Example 408]: the IC50 was found to be 0.6 nM.

Regarding `CO[C@@H]1C[C@@H](Nc2cc(-c3cccc(NCC4(C#N)CCOCC4)n3)c(Cl)cn2)CC[C@@H]1N` (single isomer, unassigned) [Compound 435], the IC50 was at most 0.5 nM.

For `CO[C@H]1C[C@H](Nc2cc(-c3cccc(NCC4(C#N)CCOCC4)n3)c(Cl)cn2)CC[C@H]1N` (single isomer, unassigned) [Compound 436], the IC50 is under 0.5 nM.

Consider `COC[C@@H](C)N[C@H]1CC[C@H](Nc2cc(-c3cccc(NCC4(C#N)CC4)n3)c(Cl)cn2)CC1` [Cmpd 400, 1-(((5′-chloro-2′-((trans-4-(((R)-1-methoxypropan-2-yl)amino)cyclohexyl)amino)-[2,4′-bipyridin]-6-yl)amino)methyl)cyclopropane-carbonitrile], for which the IC50 is under 0.5 nM.

Compound `COCCN[C@@H]1CC[C@@H](Nc2cc(-c3cccc(NCC4(C#N)CCOCC4)n3)c(Cl)cn2)C1` [Compound 409, 4-(((5′-chloro-2′-(((1R,3R)-3-((2-methoxyethyl)amino)cyclopentyl)amino)-[2,4′-bipyridin]-6-yl)amino)methyl)tetrahydro-2H-pyran-4-carbonitrile] gave an IC50 of 0.6 nM. This lies in the sub-nanomolar range.

On to `N#CC1(CNc2cccc(-c3cc(N[C@@H]4CC[C@@H](NCC5CCCO5)C4)ncc3Cl)n2)CCOCC1` (stereo partly drawn) [Compound 410, 4-(((5′-chloro-2′-(((1R,3R)-3-(((tetrahydrofuran-2-yl)methyl)amino)cyclopentyl)amino)-[2,4′-bypyridin]-6-yl)amino)methyl)tetrahydro-2H-pyran-4-carbonitrile], for which the IC50 was under 0.5 nM.

`N#CC1(CNc2cccc(-c3cc(N[C@@H]4CC[C@@H](NC5CCOC5)C4)ncc3Cl)n2)CCOCC1` (stereo partly drawn) [Compound 411, 4-(((5′-chloro-2′-(((1R,3R)-3-((tetrahydrofuran-3-yl)amino)cyclopentyl)amino)-[2,4′-bipyridin]-6-yl)amino)methyl)tetrahydro-2H-pyran-4-carbonitrile] showed an IC50 of 1.8 nM.

For `CC(C)N[C@H]1CC[C@H](Nc2cc(-c3cccc(NCC4(C#N)CCOCC4)n3)c(Cl)cn2)CC1` [Compound 412, 4-(((5′-chloro-2′-((trans-4-(isopropylamino)cyclohexyl)amino)-[2,4′-bipyridin]-6-yl)amino)methyl)tetrahydro-2H-pyran-4-carbonitrile], the IC50 is under 0.5 nM.

Consider `N#CC1(CNc2cccc(-c3cc(NC4CCC(N)CC4)ncc3Cl)n2)CC1` (centres unmarked) [Compound 413, 1-(((2′-((4-aminocyclohexyl)amino)-5′-chloro-[2,4′-bipyridin]-6-yl)amino)methyl)cyclopropane-carbonitrile], for which the IC50 was under 0.5 nM.

In turn, `N#CC1(CNc2cccc(-c3cc(N[C@H]4CC[C@H](NCC5(C#N)CC5)CC4)ncc3Cl)n2)CCOCC1` [Compound 414, 4-(((5′-chloro-2′-((trans-4-(((1-cyanocyclopropyl)methyl)amino)cyclohexyl)amino)-[2,4′-bipyridin]-6-yl)amino)methyl)tetrahydro-2H-pyran-4-carbonitrile] registered an IC50 of under 0.5 nM.

On to `COCCO[C@H]1CC[C@H](Nc2cc(-c3cccc(NCC4(C#N)CCOCC4)n3)c(Cl)cn2)CC1` [Compound 415, 4-(((5′-chloro-2′-((trans-4-(2-methoxyethoxy)cyclohexyl)amino)-[2,4′-bipyridin]-6-yl)amino)methyl)tetrahydro-2H-pyran-4-carbonitrile], for which the IC50 stood at 4.9 nM.

Turning to `CC1(C)CN([C@H]2CC[C@H](Nc3cc(-c4cccc(NCC5(C#N)CCOCC5)n4)c(Cl)cn3)CC2)CCO1` [Compound 416, 4-(((5′-chloro-2′-((trans-4-(2,2-dimethylmorpholino)cyclohexyl)amino)-[2,4′-bipyridin]-6-yl)amino)methyl)tetrahydro-2H-pyran-4-carbonitrile], the IC50 was 21 nM.

Consider `N#CC1(CNc2cccc(-c3cc(N[C@H]4CC[C@H](N5CCNC(=O)C5)CC4)ncc3Cl)n2)CCOCC1` [Compound 417], for which the IC50 was 1.3 nM.

With `N#CC1(CNc2cccc(-c3cc(N[C@H]4CC[C@@H](N5CCNC(=O)C5)CC4)ncc3Cl)n2)CCOCC1` [Compound 418, 4-(((5′-chloro-2′-((cis-4-(3-oxopiperazin-1-yl)cyclohexyl)amino)-[2,4′-bipyridin]-6-yl)amino)methyl)tetrahydro-2H-pyran-4-carbonitrile], the IC50 stood at 8.5 nM.

In turn, `N#CC1(CNc2cccc(-c3cc(N[C@H]4CC[C@H](NCC(N)=O)CC4)ncc3Cl)n2)CCOCC1` [Compound 419, 2-((trans-4-((5′-chloro-6-(((4-cyanotetrahydro-2H-pyran-4-yl)methyl)amino)-[2,4′-bipyridin]-2′-yl)amino)cyclohexyl)amino) acetamide] came in with an IC50 of under 0.5 nM.

With `CNC(=O)CN[C@H]1CC[C@H](Nc2cc(-c3cccc(NCC4(C#N)CCOCC4)n3)c(Cl)cn2)CC1` [Compound 420, 2-((trans-4-((5′-chloro-6-(((4-cyanotetrahydro-2H-pyran-4-yl)methyl)amino)-[2,4′-bipyridin]-2′-yl)amino)cyclohexyl)amino)-N-methylacetamide], the half-inhibitory concentration (IC50) is under 0.5 nM.

For `CN(C)C(=O)CN(CC(=O)N(C)C)[C@H]1CC[C@H](Nc2cc(-c3cccc(NCC4(C#N)CCOCC4)n3)c(Cl)cn2)CC1` [Compound 421, 2,2′-((trans-4-((5′-chloro-6-(((4-cyanotetrahydro-2H-pyran-4-yl)methyl)amino)-[2,4′-bipyridin]-2′-yl)amino)cyclohexyl)azanediyl) bis(N,N-dimethylacetamide)], the IC50 is 2.7 nM.

In the case of `CS(=O)(=O)CCN[C@H]1CC[C@H](Nc2cc(-c3cccc(NCC4(C#N)CCOCC4)n3)c(Cl)cn2)CC1` [Compound 422, 4-(((5′-chloro-2′-((trans-4-((2-(methylsulfonyl)ethyl)amino)cyclohexyl)amino)-[2,4′-bipyridin]-6-yl)amino)methyl)tetrahydro-2H-pyran-4-carbonitrile], the IC50 was under 0.5 nM.

In turn, `CN(C)C(=O)CN[C@H]1CC[C@H](Nc2cc(-c3cccc(NCC4(C#N)CCOCC4)n3)c(Cl)cn2)CC1` [Compound 423, 2-((trans-4-((5′-chloro-6-(((4-cyanotetrahydro-2H-pyran-4-yl)methyl)amino)-[2,4′-bipyridin]-2′-yl)amino)cyclohexyl)amino)-N,N-dimethylacetamide] yielded an IC50 of under 0.5 nM.

Regarding `N#CC1(CNc2cccc(-c3cc(N[C@H]4CC[C@H](NCCF)CC4)ncc3Cl)n2)CCOCC1` [Compound 424, 4-(((5′-chloro-2′-((trans-4-((2-fluoroethyl)amino)cyclohexyl)amino)-[2,4′-bipyridin]-6-yl)amino)methyl)tetrahydro-2H-pyran-4-carbonitrile], the IC50 was under 0.5 nM.

For the compound `CCOC(=O)C(C)(C)NC[C@H]1CC[C@H](Nc2cc(-c3cccc(NCC4(C#N)CCOCC4)n3)c(Cl)cn2)CC1` [Compound 425, ethyl 2-(((trans-4-((5′-chloro-6-(((4-cyanotetrahydro-2H-pyran-4-yl)methyl)amino)-[2,4′-bipyridin]-2′-yl)amino)cyclohexyl)methyl)amino)-2-methylpropanoate], half-maximal inhibition (IC50) required 1.1 nM.

Compound `C[C@@H]1CN([C@H]2CC[C@H](Nc3cc(-c4cccc(NCC5(C#N)CCOCC5)n4)c(Cl)cn3)CC2)C[C@H](C)O1` [Compound 426, 4-(((5′-chloro-2′-((trans-4-((2S,6R)-2,6-dimethylmorpholino)cyclohexyl)amino)-[2,4′-bipyridin]-6-yl)amino)methyl)tetrahydro-2H-pyran-4-carbonitrile] came in with an IC50 of at most 0.5 nM.

For `C[C@@H]1CN([C@H]2CC[C@@H](Nc3cc(-c4cccc(NCC5(C#N)CCOCC5)n4)c(Cl)cn3)CC2)C[C@H](C)O1` [Compound 427, 4-(((5′-chloro-2′-((cis-4-((2S,6R)-2,6-dimethylmorpholino)cyclohexyl)amino)-[2,4′-bipyridin]-6-yl)amino)methyl)tetrahydro-2H-pyran-4-carbonitrile], 8.2 nM corresponded to half-maximal inhibition (IC50).

As for `N#CC1(CNc2cccc(-c3cc(N[C@H]4CC[C@H](N5CCCOCC5)CC4)ncc3Cl)n2)CCOCC1` [Compound 428, 4-(((2′-((trans-4-(1,4-oxazepan-4-yl)cyclohexyl)amino)-5′-chloro-[2,4′-bipyridin]-6-yl)amino)methyl)tetrahydro-2H-pyran-4-carbonitrile], the half-inhibitory concentration (IC50) was 0.6 nM.

`CC(C)(NC[C@H]1CC[C@H](Nc2cc(-c3cccc(NCC4(C#N)CCOCC4)n3)c(Cl)cn2)CC1)C(=O)O` [Compound 429, 2-(((trans-4-((5′-chloro-6-(((4-cyanotetrahydro-2H-pyran-4-yl)methyl)amino)-[2,4′-bipyridin]-2′-yl)amino)cyclohexyl)methyl)amino)-2-methylpropanoic acid] had an IC50 of 1.3 nM.

The compound `CC1(CN[C@H]2CC[C@H](Nc3cc(-c4cccc(NCC5(C#N)CCOCC5)n4)c(Cl)cn3)CC2)COC1` [Compound 430, 4-(((5′-chloro-2′-((trans-4-(((3-methyloxetan-3-yl)methyl)amino)cyclohexyl)amino)-[2,4′-bipyridin]-6-yl)amino)methyl)tetrahydro-2H-pyran-4-carbonitrile] registered an IC50 of 1 nM.

The compound `CC(O)(C(=O)N[C@H]1CC[C@H](Nc2cc(-c3cccc(NCC4(C#N)CCOCC4)n3)c(Cl)cn2)CC1)C(F)(F)F` (stereo partly drawn) [Compound 431, N-(trans-4-((5′-chloro-6-(((4-cyanotetrahydro-2H-pyran-4-yl)methyl)amino)-[2,4′-bipyridin]-2′-yl)amino)cyclohexyl)-3,3,3-trifluoro-2-hydroxy-2-methylpropanamide] registered an IC50 of 1.7 nM.

In turn, `CC(C)(C)OCCN[C@H]1CC[C@H](Nc2cc(-c3cccc(NCC4(C#N)CCOCC4)n3)c(Cl)cn2)CC1` [Compound 432, 4-(((2′-((trans-4-((2-(tert-butoxy)ethyl)amino)cyclohexyl)amino)-5′-chloro-[2,4′-bipyridin]-6-yl)amino)methyl)tetrahydro-2H-pyran-4-carbonitrile] yielded an IC50 of under 0.5 nM.
